Results taken from patent publication US20250154141A1 (University of Florida Research Foundation, Incorporated, priority 2021, published 2025).
Like-named read-outs stand apart in the source and are kept apart here.

Key:
Format in all cases: cell-based
MOLT-4 = experiment: Cell viability assay (MTS) in MOLT-4 cells; details: Homo sapiens, MOLT-4
Method: (§1) Acute lymphoblastic leukemia cells (MOLT-4 and RS4; 11) were incubated with increasing concentrations of Bcl-xL degraders for 48 h. Cell viability was measured by tetrazolium-based MTS assay.

RS4; 11 = experiment: Cell viability assay (MTS) in RS4; 11 cells; details: Homo sapiens, RS4-11
Method: as §1

human platelets = experiment: Platelet toxicity assay (MTS viability); details: for IC50: Homo sapiens, Platelet, 48 h, human platelets
Method: Platelet-rich plasma (PRP) was purchased from Life South Community Blood Centers (Gainesville, FL, USA). PRP was transferred into a 50 mL tube containing 5 mL of the acid citrate buffer (Cat. No. sc-214744, Santa Cruz Biotechnology). To prevent clotting, prostaglandin E1 (PGE1, Cat. No. sc-201223A, Santa Cruz Biotechnology, Dallas, TX, USA) and apyrase (Cat. No. A6237, Sigma-Aldrich, St. Louis, MO, USA) were added to final concentrations of […] and 0.2 U/mL, respectively. After gently mixing the solution, platelets were pelleted by centrifugation at 1200 g for 10 min without break. Pelleted platelets were gently washed without disturbing platelets using 2 mL of HEPES Tyrode's buffer (Cat. No. PY-921WB, Boston BioProducts, Ashland, MA, USA) containing […] PGE1 and 0.2 U/mL apyrase. After washing, pellets were gently suspended in 10 mL of HEPES Tyrode's buffer containing […] PGE1 and 0.2 U/mL apyrase. Then, the platelet number was counted using a HEMAVET 950FS hematology analyzer (Drew Scientific, Inc., Oxford, CT, USA). For viability assays, the platelet number was adjusted to 2×10^8/mL in HEPES Tyrode's buffer containing […] PGE1 and 0.2 U/mL apyrase. Each treatment was given in 2 mL of the platelet suspension in 15 mL polypropylene tubes. The tubes were placed on a rotating platform at room temperature, and the viability of platelets was measured after 48 h treatment by using the MTS reagent (Cat. No. G1111, Promega, Madison, WI, USA). The data were analyzed by the GraphPad Prism 7 software for the calculation of IC50 values.

[1] = Table 2, 48 hr, MTS, read-out: Anti-Cancer Activity IC50 (48 hr) MOLT-4
[2] = Table 2, 48 hr, MTS, read-out: Anti-Cancer Activity IC50 (48 hr) RS4, 11
[3] = Table 4, 48 h, read-out: RS4 48 h IC50
[4] = Table 4, read-out: Platelets 48 h IC50
[5] = Table 3, 48 h, mean of two independent experiments in triplicates, read-out: MOLT-4 48 h IC50
[6] = Table 3, mean of two independent experiments in triplicates, read-out: Platelets 48 h IC50
[7] = Table 3, ratio of platelet IC50 to MOLT-4 IC50
[8] = Table 2A, 48 hr, MTS, read-out: Anti-Cancer Activity IC50 (48 hr) MOLT-4
[9] = Table 2A, 48 hr, MTS, read-out: Anti-Cancer Activity IC50 (48 hr) RS4, 11

| IC50 (MOLT-4; [1]) [nM] | IC50 (RS4; 11; [2]) [nM] | SMILES | further results |
| --- | --- | --- | --- |
| < 20 | < 20 | Cc1ncsc1-c1ccc([C@H](C)NC(=O)[C@@H]2C[C@@H](O)CN2C(=O)[C@@H](NC(=O)CCCCCCC(=O)N2CCN(C[C@]3(C)CCC(c4ccc(Cl)cc4)=C(CN4CCN(c5ccc(C(=O)NS(=O)(=O)c6ccc(N[C@H](CCN(C)CCO)CSc7ccccc7)c(S(=O)(=O)C(F)(F)F)c6)cc5)CC4)C3)CC2)C(C)(C)C)cc1 [Compound 62] | IC50 (MOLT-4; Table 4, 48 h, read-out: MOLT-4 48 h IC50): 21 nM; IC50 (RS4; 11; [3]): < 7 nM; IC50 (human platelets; [4]): > 10000 nM |
| < 20 | < 20 | Cc1ncsc1-c1ccc([C@H](C)NC(=O)[C@@H]2C[C@@H](O)CN2C(=O)[C@@H](NC(=O)CCCCCCC(=O)N2CCN(C[C@]3(C)CCC(c4ccc(Cl)cc4)=C(CN4CCN(c5ccc(C(=O)NS(=O)(=O)c6ccc(N[C@H](CCN7C[C@H]8C[C@@H]7CO8)CSc7ccccc7)c(S(=O)(=O)C(F)(F)F)c6)cc5)CC4)C3)CC2)C(C)(C)C)cc1 [Compound 66] | IC50 (MOLT-4; [5]): 2.3 nM; IC50 (RS4; 11; [3]): 1.6 nM; IC50 (human platelets; [6]): 853 nM; IC50 (human platelets; [4]): 853 nM; IC50 (human platelets; Table 6, 4 th time, read-out: Platelets 4 th time 48 h IC50): 853 nM; Platelets/MOLT-4 IC50 Fold change (human platelets; [7]): 370; PLT/MOLT-4 IC50 Fold Change (human platelets; Table 4, ratio of platelet IC50 to MOLT-4 IC50): 370; Platelets/MOLT-4 IC50 Fold change (human platelets; Table 6, ratio of platelet IC50 to MOLT-4 IC50): 370 |
| < 20 | 20 to 100 | Cc1ncsc1-c1ccc([C@H](C)NC(=O)[C@@H]2C[C@@H](O)CN2C(=O)[C@@H](NC(=O)CCCCCNC(=O)c2ccc(N3CCN(CC4(C)CCC(c5ccc(Cl)cc5)=C(CN5CCN(c6ccc(C(=O)NS(=O)(=O)c7ccc(N[C@H](CCN8CCOCC8)CSc8ccccc8)c(S(=O)(=O)C(F)(F)F)c7)cc6)CC5)C4)CC3)cc2)C(C)(C)C)cc1 (stereo partly drawn) [Compound 12, (2S,4R)-1-((2S)-2-(6-(4-(4-((4′-chloro-4-methyl-6-((4-(4-(((4-(((R)-4-morpholino-1-(phenylthio)butan-2-yl)amino)-3-((trifluoromethyl)sulfonyl)phenyl)sulfonyl)carbamoyl)phenyl)piperazin-1-yl)methyl)-2,3,4,5-tetrahydro-[1,1′-biphenyl]-4-yl)methyl)piperazin-1-yl)benzamido)hexanamido)-3,3-dimethylbutanoyl)-4-hydroxy-N—((S)-1-(4-(4-methylthiazol-5-yl)phenyl)ethyl)pyrrolidine-2-carboxamide] | IC50 (MOLT-4; [5]): 17.5 nM; IC50 (human platelets; [6]): 2160 nM; Platelets/MOLT-4 IC50 Fold change (human platelets; [7]): 123 |
| – | – | Cc1ncsc1-c1ccc([C@H](C)NC(=O)[C@@H]2C[C@@H](O)CN2C(=O)[C@@H](NC(=O)CN(C)CC(=O)N2CCC(C3CCN(C[C@]4(C)CCC(c5ccc(Cl)cc5)=C(CN5CCN(c6ccc(C(=O)NS(=O)(=O)c7ccc(N[C@H](CCN8CCCOCC8)CSc8ccccc8)c(S(=O)(=O)C(F)(F)F)c7)cc6)CC5)C4)CC3)CC2)C(C)(C)C)cc1 [Compound 118] | IC50 (MOLT-4; [8]): < 20 nM; IC50 (RS4; 11; [9]): < 20 nM |
| 500 to 10000 | 100 to 500 | Cc1ncsc1-c1ccc([C@H](C)NC(=O)[C@@H]2C[C@@H](O)CN2C(=O)[C@@H](NC(=O)CCCCCCCNC(=O)c2ccc(N3CCN(CC4(C)CCC(c5ccc(Cl)cc5)=C(CN5CCN(c6ccc(C(=O)NS(=O)(=O)c7ccc(N[C@H](CCN8CCOCC8)CSc8ccccc8)c(S(=O)(=O)C(F)(F)F)c7)cc6)CC5)C4)CC3)cn2)C(C)(C)C)cc1 (stereo partly drawn) [Compound 6] | – |
| – | – | Cc1ncsc1-c1ccc([C@H](C)NC(=O)[C@@H]2C[C@@H](O)CN2C(=O)[C@@H](NC(=O)CN2CCN(CCNC(=O)c3ccc(CN4CCN(C[C@]5(C)CCC(c6ccc(Cl)cc6)=C(CN6CCN(c7ccc(C(=O)NS(=O)(=O)c8ccc(N[C@H](CCN9CCCOCC9)CSc9ccccc9)c(S(=O)(=O)C(F)(F)F)c8)cc7)CC6)C5)CC4)nc3)CC2)C(C)(C)C)cc1 [Compound 114] | IC50 (MOLT-4; [8]): < 20 nM; IC50 (RS4; 11; [9]): < 20 nM |
| < 20 | 20 to 100 | Cc1ncsc1-c1ccc([C@H](C)NC(=O)[C@@H]2C[C@@H](O)CN2C(=O)[C@@H](NC(=O)CCCCCCC(=O)N2CCN(C[C@]3(C)CCC(c4ccc(Cl)cc4)=C(CN4CCN(c5ccc(C(=O)NS(=O)(=O)c6ccc(N[C@H](CCN7CCCOCC7)CSc7ccccc7)c(S(=O)(=O)C(F)(F)F)c6)cc5)CC4)C3)C[C@@H]2C)C(C)(C)C)cc1 [Compound 82] | – |
| < 20 | < 20 | Cc1ncsc1-c1ccc([C@H](C)NC(=O)[C@@H]2C[C@@H](O)CN2C(=O)[C@@H](NC(=O)CN2CCN(CC(=O)N3CCN(CC4(C)CCC(c5ccc(Cl)cc5)=C(CN5CCN(c6ccc(C(=O)NS(=O)(=O)c7ccc(N[C@H](CCN8CCOCC8)CSc8ccccc8)c(S(=O)(=O)C(F)(F)F)c7)cc6)CC5)C4)CC3)CC2)C(C)(C)C)cc1 (stereo partly drawn) [Compound 25] | – |
| < 20 | < 20 | Cc1ncsc1-c1ccc([C@H](C)NC(=O)[C@@H]2C[C@@H](O)CN2C(=O)[C@@H](NC(=O)CCCCCCC(=O)N2CCN(C[C@]3(C)CCC(c4ccc(Cl)cc4)=C(CN4CCN(c5ccc(C(=O)NS(=O)(=O)c6ccc(N[C@H](CCN7CCCCCC7)CSc7ccccc7)c([N+](=O)[O-])c6)cc5)CC4)C3)CC2)C(C)(C)C)cc1 [Compound 56] | – |
| 20 to 100 | 20 to 100 | Cc1ncsc1-c1ccc([C@H](C)NC(=O)[C@@H]2C[C@@H](O)CN2C(=O)[C@@H](NC(=O)CCCC(=O)N2CCN(CC3CCN(CC4(C)CCC(c5ccc(Cl)cc5)=C(CN5CCN(c6ccc(C(=O)NS(=O)(=O)c7ccc(N[C@H](CCN8CCOCC8)CSc8ccccc8)c(S(=O)(=O)C(F)(F)F)c7)cc6)CC5)C4)CC3)CC2)C(C)(C)C)cc1 (stereo partly drawn) [Compound 18] | – |
| 20 to 100 | 20 to 100 | Cc1ncsc1-c1ccc([C@H](C)NC(=O)[C@@H]2C[C@@H](O)CN2C(=O)[C@@H](NC(=O)CCCNC(=O)c2ccc(N3CCN(CC4(C)CCC(c5ccc(Cl)cc5)=C(CN5CCN(c6ccc(C(=O)NS(=O)(=O)c7ccc(N[C@H](CCN8CCOCC8)CSc8ccccc8)c(S(=O)(=O)C(F)(F)F)c7)cc6)CC5)C4)CC3)cc2)C(C)(C)C)cc1 (stereo partly drawn) [Compound 11, (2S,4R)-1-((2S)-2-(4-(4-(4-((4′-chloro-4-methyl-6-((4-(4-(((4-(((R)-4-morpholino-1-(phenylthio)butan-2-yl)amino)-3-((trifluoromethyl)sulfonyl)phenyl)sulfonyl)carbamoyl)phenyl)piperazin-1-yl)methyl)-2,3,4,5-tetrahydro-[1,1′-biphenyl]-4-yl)methyl)piperazin-1-yl)benzamido)butanamido)-3,3-dimethylbutanoyl)-4-hydroxy-N—((S)-1-(4-(4-methylthiazol-5-yl)phenyl)ethyl)pyrrolidine-2-carboxamide] | – |
